Experimental data taken from BigSolDB 2.1.

For `O=Cc1ccc2ccccc2c1`, the solubility (mole fraction) (in ethanol, 283.15 K) was 0.0161, the solubility (mole fraction) (in ethanol, 288.15 K) was 0.0245 and the solubility (mole fraction) (in ethanol, 293.15 K) was 0.0377. The solubility (mole fraction) (in ethanol, 298.15 K) was 0.0653, the solubility (mole fraction) (in ethanol, 303.15 K) was 0.11 and the solubility (mole fraction) (in ethanol, 308.15 K) was 0.191. For the same compound, the solubility (mole fraction) (in ethanol, 313.15 K) was 0.314, the solubility (mole fraction) (in isopropanol, 283.15 K) was 0.0115 and the solubility (mole fraction) (in isopropanol, 288.15 K) was 0.0201. For the same compound, the solubility (mole fraction) (in isopropanol, 293.15 K) was 0.0404, the solubility (mole fraction) (in isopropanol, 298.15 K) was 0.0557 and the solubility (mole fraction) (in isopropanol, 303.15 K) was 0.0908. For the same compound, the solubility (mole fraction) (in isopropanol, 308.15 K) was 0.144, the solubility (mole fraction) (in isopropanol, 313.15 K) was 0.237 and the solubility (mole fraction) (in methanol, 283.15 K) was 0.00592. It also gave a solubility (mole fraction) (in methanol, 288.15 K) of 0.00987, a solubility (mole fraction) (in methanol, 293.15 K) of 0.0163 and a solubility (mole fraction) (in methanol, 298.15 K) of 0.0274. It also gave a solubility (mole fraction) (in methanol, 303.15 K) of 0.0418, a solubility (mole fraction) (in methanol, 308.15 K) of 0.0696 and a solubility (mole fraction) (in methanol, 313.15 K) of 0.119. For the same compound, the solubility (mole fraction) (in n-butanol, 283.15 K) was 0.0195, the solubility (mole fraction) (in n-butanol, 288.15 K) was 0.0281 and the solubility (mole fraction) (in n-butanol, 293.15 K) was 0.0425. For the same compound, the solubility (mole fraction) (in n-butanol, 298.15 K) was 0.0561, the solubility (mole fraction) (in n-butanol, 303.15 K) was 0.0758 and the solubility (mole fraction) (in n-butanol, 308.15 K) was 0.117. It also gave a solubility (mole fraction) (in n-butanol, 313.15 K) of 0.164, a solubility (mole fraction) (in n-heptane, 283.15 K) of 0.00944 and a solubility (mole fraction) (in n-heptane, 288.15 K) of 0.0128. For the same compound, the solubility (mole fraction) (in n-heptane, 293.15 K) was 0.0164, the solubility (mole fraction) (in n-heptane, 298.15 K) was 0.0192 and the solubility (mole fraction) (in n-heptane, 303.15 K) was 0.0255. The solubility (mole fraction) (in n-heptane, 308.15 K) was 0.0345, the solubility (mole fraction) (in n-heptane, 313.15 K) was 0.0415 and the solubility (mole fraction) (in n-hexane, 283.15 K) was 0.00727. It also gave a solubility (mole fraction) (in n-hexane, 288.15 K) of 0.00923, a solubility (mole fraction) (in n-hexane, 293.15 K) of 0.0128 and a solubility (mole fraction) (in n-hexane, 298.15 K) of 0.0159. For the same compound, the solubility (mole fraction) (in n-hexane, 303.15 K) was 0.0189, the solubility (mole fraction) (in n-hexane, 308.15 K) was 0.026 and the solubility (mole fraction) (in n-hexane, 313.15 K) was 0.0314.
